# Experimental data as given in patent EP4603105A1, “PHARMACEUTICAL COMPOSITION CONTAINING CYCLIC COMPOUND HAVING SELECTIVE KRAS INHIBITORY EFFECT AGAINST HRAS AND NRAS” (CHUGAI SEIYAKU KABUSHIKI KAISHA, priority 2022, dated 2024).
# Where a SMILES comes first, the peptide text is derived from it. Bridges are numbered along the chain shown (N, C = ends). [ ]: non-standard residue; d: D form. The star is where a group is joined. hPhe(3-Cl-4-CF3) = N[C@@H](CCc1ccc(C(F)(F)F)c(Cl)c1)C(=O)O; NPrPhe(4-CF3) = CCCN[C@@H](Cc1ccc(C(F)(F)F)cc1)C(=O)O; NMeGly(cPent) = CN[C@H](C(=O)O)C1CCCC1; Pro(4,4-F2) = O=C(O)[C@@H]1CC(F)(F)CN1; Hyp = O=C(O)[C@@H]1C[C@@H](O)CN1; NMeD = CN[C@@H](CC(=O)O)C(=O)O; NMeL = CN[C@@H](CC(C)C)C(=O)O; Morpholide = C1CN(*)CCO1; Ac5c = NC1(C(=O)O)CCCC1; Aze = O=C(O)[C@@H]1CCN1; Ac4c = NC1(C(=O)O)CCC1; Sar = CNCC(=O)O
# What was measured:
# [1] = molecular target: GDP-bound KRAS wild-type protein (Homo sapiens, UniProt P01116); test: Binding to KRAS by surface plasmon resonance (SPR), dissociation constant KD
# In short: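 Affinity is measured by surface plasmon resonance at 30°C against captured, GDP-loaded RAS carrying a biotinylated Avi tag. Compounds are titrated by single-cycle kinetics, and KD comes from a 1:1 fit.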
# [2] = molecular target: GDP-bound NRAS wild-type protein (Homo sapiens, UniProt P01111); test: Binding to NRAS by surface plasmon resonance (SPR), KD and KD ratio to KRAS
# In short: (§1)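 GDP-loaded biotinylated Avi-tag RAS proteins (E. coli-expressed) captured on a Biotin CAPture chip at ~100–300 RU; single-cycle kinetics at 30°C, 100 µL/min, 75 s injections of rising compound concentrations. HBS pH 7.4 running buffer with 1 mM DTT, 10 mM MgCl2, 10 µM GDP, 4% DMSO. KD from 1:1 binding fit.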
# HRAS wild-type protein = HRAS wild-type protein (Homo sapiens, UniProt P01112); test: Binding to HRAS by surface plasmon resonance (SPR), KD and KD ratio to KRAS
# In short: as §1
# [3] = system: human lung cancer strain NCI-H441; format: cell-based
# In short: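 Readout: […] after the ATP-based reagent. Compound: serial dilutions in dimethyl sulfoxide.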
# [4] = ratio of KD for GDP-bound NRAS wild-type protein to KD for KRAS
# [5] = ratio of KD for HRAS wild-type protein to KD for KRAS
# [6] = Single Cycle Kinetics, 1:1 binding model
# [7] = ratio of the KD value with respect to GDP-bound NRAS wild-type protein to the KD value with respect to KRAS
# [8] = ratio of the KD value with respect to HRAS wild-type protein to the KD value with respect to KRAS
# Sequence of HRAS wild-type protein (P01112 whole entry): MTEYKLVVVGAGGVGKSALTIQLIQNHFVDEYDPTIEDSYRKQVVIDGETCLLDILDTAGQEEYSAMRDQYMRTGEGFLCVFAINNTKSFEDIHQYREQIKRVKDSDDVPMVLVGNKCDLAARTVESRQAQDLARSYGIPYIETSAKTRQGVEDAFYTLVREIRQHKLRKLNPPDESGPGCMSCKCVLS
# Sequence of GDP-bound KRAS wild-type protein (P01116 1-188 isoform P01116-2): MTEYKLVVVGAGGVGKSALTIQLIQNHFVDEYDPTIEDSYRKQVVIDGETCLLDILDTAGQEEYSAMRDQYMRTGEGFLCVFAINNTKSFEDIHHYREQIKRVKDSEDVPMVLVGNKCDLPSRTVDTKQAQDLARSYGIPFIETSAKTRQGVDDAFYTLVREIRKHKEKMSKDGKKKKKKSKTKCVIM
# Sequence of GDP-bound NRAS wild-type protein (P01111 whole entry): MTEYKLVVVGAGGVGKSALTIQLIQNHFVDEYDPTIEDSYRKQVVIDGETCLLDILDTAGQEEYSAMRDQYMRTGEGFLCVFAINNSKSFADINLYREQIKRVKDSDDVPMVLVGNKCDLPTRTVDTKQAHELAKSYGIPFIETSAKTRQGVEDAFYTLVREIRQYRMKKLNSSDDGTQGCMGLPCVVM
Compound,Kd ([1]; 1:1 binding model),IC50 [3],"Kd [1, 6]",Kd ([1]; Single Cycle Kinetics),"NRAS /KRAS [2, 4]",HRAS /KRAS (HRAS wild-type protein; [5]),"NRAS /KRAS [2, 7]",HRAS /KRAS (HRAS wild-type protein; [8])
CCC[C@H]1C(=O)N[C@@H]([C@@H](C)CC)C(=O)N(C2CC2)CC(=O)N(C)[C@H]2C/C=C\CCN(C2=O)[C@@H](Cc2ccc(C)cc2)C(=O)N(C)CC(=O)N[C@@H](CCc2ccc(Cl)c(Cl)c2)C(=O)N2C[C@H](OCC)C[C@H]2C(=O)NC2(CC(C)(C)C2)C(=O)N(C)[C@@H](CC2CC2)C(=O)N(C)[C@H](C(=O)N(C)C)CC(=O)N1C [PP2805],3.7 nM,83 nM,–,–,A (a compound having 10 or more and less than 20 is denoted as A),A (a compound having 10 or more and less than 20 is denoted as A),–,–
"CCCN1C(=O)CN(C)C(=O)[C@@H]2CCN2C(=O)[C@H]([C@@H](C)CC)NC(=O)[C@H](CC(C)C)N(C)C(=O)C[C@@H](C(=O)N(C)C)N(C)C(=O)[C@H](C2CCCC2)N(C)C(=O)C2(CCC2)NC(=O)[C@@H]2CC(F)(F)CN2C(=O)[C@H](CCc2ccc(C(F)(F)F)c(Cl)c2)NC(=O)CN(C)C(=O)[C@@H]1Cc1ccc(C(F)(F)F)cc1 [PP0432] ([NMeL]I[Aze][Sar][NPrPhe(4-CF3)][Sar][hPhe(3-Cl-4-CF3)][Pro(4,4-F2)][Ac4c][NMeGly(cPent)][NMeD]-NMe2; lactam N-11)",–,10.7 nM,0.17 nM,–,–,–,B (a compound having 3 or more and less than 10 is denoted as B),B (a compound having 3 or more and less than 10 is denoted as B)
CCC[C@H]1C(=O)N[C@@H](C(CC)CC)C(=O)N(C)CC(=O)N(C)[C@H]2C/C=C\CCN(C2=O)[C@@H](Cc2ccc(C)cc2)C(=O)N(C)CC(=O)N[C@@H](CCc2ccc(C(F)(F)F)c(Cl)c2)C(=O)N2C[C@H](OCC)C[C@H]2C(=O)NC2(CC(C)(C)C2)C(=O)N(C)[C@@H](CC(C)C)C(=O)N(C)[C@H](C(=O)N(C)C)CC(=O)N1C [PP2202],–,94.7 nM,4.9 nM,–,–,–,A (a compound having 10 or more and less than 20 is denoted as A),A (a compound having 10 or more and less than 20 is denoted as A)
CCO[C@@H]1C[C@H]2C(=O)NC3(CCC3)C(=O)N(C)[C@@H](C3CCCC3)C(=O)N(CC)[C@H](C(=O)N3CCOCC3)CC(=O)N(C)[C@@H](CC(C)C)C(=O)N[C@@H]([C@@H](C)CC)C(=O)N(C)CC(=O)N(C)[C@H]3CCCCCN(C3=O)[C@@H](Cc3ccc(C(F)(F)F)cc3)C(=O)N(C)CC(=O)N[C@@H](CCc3cc(F)c(C(F)(F)F)c(F)c3)C(=O)N2C1 [PP0638],–,341 nM,3.4 nM,–,–,–,B (a compound having 3 or more and less than 10 is denoted as B),B (a compound having 3 or more and less than 10 is denoted as B)
CC[C@H](C)[C@@H]1NC(=O)[C@H](CC(C)C)N(C)C(=O)C[C@@H](C(=O)N2CCOCC2)N(C)C(=O)[C@H](C2CCCC2)N(C)C(=O)C2(CCCC2)NC(=O)[C@@H]2CCCN2C(=O)[C@H](CCc2ccc(C(F)(F)F)c(Cl)c2)NC(=O)CN(C)C(=O)[C@H](Cc2ccccc2)N2CC=CC[C@@H](C2=O)N(C)C(=O)CN(C)C1=O [PP0528],–,21.8 nM,0.37 nM,–,–,–,C (A compound having a KD ratio of 0.1 or more and less than 3 is denoted as C),C (A compound having a KD ratio of 0.1 or more and less than 3 is denoted as C)
CCC[C@H]1C(=O)N[C@@H]([C@@H](C)CC)C(=O)N(C)CC(=O)N(C)[C@H]2C/C=C\CCN(C2=O)[C@@H](Cc2ccc(C(F)(F)F)cc2)C(=O)N(C)CC(=O)N[C@@H](CCc2ccc3c(C)c(C)n(C)c3c2)C(=O)N2C[C@H](OCC)C[C@H]2C(=O)NC2(CC(C)(C)C2)C(=O)N(C)[C@@H](C(CC)CC)C(=O)N(C)[C@H](C(=O)N(C)C)CC(=O)N1C [PP2904],3.8 nM,82.4 nM,–,–,AA (a compound having 20 or more is denoted as AA),A (a compound having 10 or more and less than 20 is denoted as A),–,–
CCCN1C(=O)CN(C)C(=O)[C@@H]2CCN2C(=O)[C@H]([C@@H](C)CC)NC(=O)[C@H](CC(C)C)N(C)C(=O)C[C@@H](C(=O)N2CCOCC2)NC(=O)[C@H](C2CCCC2)N(C)C(=O)C2(CCCC2)NC(=O)[C@@H]2C[C@@H](OCC)CN2C(=O)[C@H](CCc2ccc(C(F)(F)F)c(Cl)c2)NC(=O)CN(C)C(=O)[C@@H]1Cc1ccc(C(F)(F)F)cc1 [PP0341] ([NMeL]I[Aze][Sar][NPrPhe(4-CF3)][Sar][hPhe(3-Cl-4-CF3)][Hyp](Et)[Ac5c][NMeGly(cPent)]D-Morpholide; lactam N-11),1.4 nM,135 nM,–,–,B (a compound having 3 or more and less than 10 is denoted as B),B (a compound having 3 or more and less than 10 is denoted as B),–,–
CCC(CC)[C@H]1C(=O)N(C)[C@H](C(=O)N(C)C)CC(=O)N(C)[C@@H](COC)C(=O)N[C@@H]([C@@H](C)CC)C(=O)N(C)CC(=O)N(C)[C@H]2C/C=C\CCN(C2=O)[C@@H](Cc2ccc(C)cc2)C(=O)N(C)CC(=O)N[C@@H](CCc2ccc(Cl)c(Cl)c2)C(=O)N2CC3(CC3)C[C@H]2C(=O)N(C)C2(CC(C)(C)C2)C(=O)N1C [PP2820],0.94 nM,62.4 nM,–,–,AA (a compound having 20 or more is denoted as AA),A (a compound having 10 or more and less than 20 is denoted as A),–,–
CC[C@H](C)[C@@H]1NC(=O)[C@H](CC(C)C)N(C)C(=O)C[C@@H](C(=O)N2CCOCC2)N(C)C(=O)[C@H](C2CCCC2)N(C)C(=O)C2(CCC2)NC(=O)[C@@H]2[C@H]3C[C@H]3CN2C(=O)[C@H](CCc2cc(F)c(C(F)(F)F)c(F)c2)NC(=O)CN(C)C(=O)[C@H](Cc2ccc(C(F)(F)F)cc2)N2CCCCC[C@@H](C2=O)N(C)C(=O)CN(C)C1=O [PP0819],–,75.7 nM,–,0.56 nM,A (a compound having 10 or more and less than 20 is denoted as A),B (a compound having 3 or more and less than 10 is denoted as B),–,–

# Second part, led by results:
Kd ([1]; 1:1 binding model),IC50 [3],"Kd [1, 6]",Kd ([1]; Single Cycle Kinetics),Compound,"NRAS /KRAS [2, 4]",HRAS /KRAS (HRAS wild-type protein; [5]),"NRAS /KRAS [2, 7]",HRAS /KRAS (HRAS wild-type protein; [8])
0.58 nM,31.1 nM,–,–,CCC[C@H]1C(=O)N[C@@H]([C@@H](C)CC)C(=O)N(C)CC(=O)N(C)[C@H]2C/C=C\CCN(C2=O)[C@@H](Cc2ccc(C)cc2)C(=O)N(C)CC(=O)N[C@@H](CCc2ccc(C(F)(F)F)c(OC)c2)C(=O)N2CC3(CC3)C[C@H]2C(=O)NC2(CC(C)(C)C2)C(=O)N(C)[C@@H]([C@@H](C)CC)C(=O)N(C)[C@H](C(=O)N(C)C)CC(=O)N1C [PP3011],A (a compound having 10 or more and less than 20 is denoted as A),B (a compound having 3 or more and less than 10 is denoted as B),–,–
0.23 nM,18.6 nM,–,–,CCO[C@@H]1C[C@H]2C(=O)NC3(CC(C)(C)C3)C(=O)N(C)[C@@H](C3CCCC3)C(=O)N(C)[C@H](C(=O)N(C)CC)CC(=O)N(C)[C@@H](CC(C)C)C(=O)N[C@@H]([C@@H](C)CC)C(=O)N(C)CC(=O)N(C)[C@H]3C/C=C\CCN(C3=O)[C@@H](Cc3ccc(C(F)F)cc3)C(=O)N(C)CC(=O)N[C@@H](CCc3ccc(C(F)(F)F)c(C4CC4)c3)C(=O)N2C1 [PP3151],A (a compound having 10 or more and less than 20 is denoted as A),A (a compound having 10 or more and less than 20 is denoted as A),–,–
0.66 nM,41 nM,–,–,CCO[C@@H]1C[C@H]2C(=O)NC3(CC(C)(C)C3)C(=O)N(C)[C@@H](C3CCCC3)C(=O)N(C)[C@H](C(=O)N(C)CC)CC(=O)N(C)[C@@H](CC(C)C)C(=O)N[C@@H]([C@@H](C)CC)C(=O)N(C)CC(=O)N(C)[C@H]3C/C=C\CCN(C3=O)[C@@H](Cc3ccc(C(F)F)cc3)C(=O)N(C)CC(=O)N[C@@H](CCc3cc(F)c(CC)c(OC)c3)C(=O)N2C1 [PP3143],A (a compound having 10 or more and less than 20 is denoted as A),A (a compound having 10 or more and less than 20 is denoted as A),–,–
0.37 nM,13.3 nM,–,–,CCO[C@@H]1C[C@H]2C(=O)NC3(CC(C)(C)C3)C(=O)N(C)[C@@H](C3CCCC3)C(=O)N(C)[C@H](C(=O)N(C)CC)CC(=O)N(C)[C@@H]([C@@H](C)OC)C(=O)N[C@@H]([C@@H](C)CC)C(=O)N(C)CC(=O)N(C)[C@H]3C/C=C\CCN(C3=O)[C@@H](Cc3ccc(C)cc3)C(=O)N(C)CC(=O)N[C@@H](CCc3ccc(C(F)(F)F)c(Cl)c3)C(=O)N2C1 [PP3180],B (a compound having 3 or more and less than 10 is denoted as B),B (a compound having 3 or more and less than 10 is denoted as B),–,–
1.3 nM,38.6 nM,–,–,CCC(CC)[C@H]1C(=O)N(C)[C@H](C(=O)N(C)C)CC(=O)N(C)[C@@H](COC)C(=O)N[C@@H]([C@@H](C)CC)C(=O)N(C)CC(=O)N(C)[C@H]2C/C=C\CCN(C2=O)[C@@H](Cc2ccc(C)cc2)C(=O)N(C)CC(=O)N[C@@H](CCc2ccc(Cl)c(Cl)c2)C(=O)N2CCCCC[C@H]2C(=O)NC2(CC(C)(C)C2)C(=O)N1C [PP2974],A (a compound having 10 or more and less than 20 is denoted as A),A (a compound having 10 or more and less than 20 is denoted as A),–,–
0.38 nM,16 nM,–,–,CCC[C@H]1C(=O)N[C@@H]([C@@H](C)CC)C(=O)N(C)CC(=O)N(C)[C@H]2C/C=C\CCN(C2=O)[C@@H](Cc2ccc(C)cc2)C(=O)N(C)CC(=O)N[C@@H](CCc2ccc(C(F)(F)F)c(OC)c2)C(=O)N2C[C@H](OCC)C[C@H]2C(=O)NC2(CC(C)(C)C2)C(=O)N(C)[C@@H](CC(C)C)C(=O)N(C)[C@H](C(=O)N(C)C)CC(=O)N1C [PP3008],A (a compound having 10 or more and less than 20 is denoted as A),A (a compound having 10 or more and less than 20 is denoted as A),–,–
